Values joined by “and” are separate entries in the source; they are usually repeats but may differ in a detail not shown here. Identical values can stand only once. Toxic doses and inconclusive results are not listed. How the source made its calls: active means survival T/C of 150% or more; inactive means T/C below 125% in these data.
Tested on: P388 leukemia ip, CD2F1 mice, survival T/C
Assay: NCI In Vivo Anticancer Drug Screen. Data for tumor model P388 Leukemia (intraperitoneal) in CD2F1 (CDF1) mice
Conditions: endpoint: median survival time, higher = longer survival
How it was run: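 Mice carrying the transplanted tumor received test compound or vehicle. Survival was recorded in each group, and the value is the treated-group measurement divided by that of the vehicle-treated control group.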

Measured: T/C

COC1C(C)OC(OC2CC(C)(O)Cc3cc4c(c(O)c32)C(=O)c2c(O)cc3c(c2C4=O)OC2OC3(C)C(O)C(N(C)C)C2O)C(OC)C1(C)OC (stereo unspecified)
active: dose: 1.0 mg/kg/injection, schedule: Q01DX009 (ip), vehicle: saline 151 % of control | dose: 1.25 mg/kg/injection, schedule: Q01DX009 (ip), vehicle: other 151 % of control | dose: 1.5 mg/kg/injection, schedule: Q01DX009 (ip), vehicle: saline 160 % of control | dose: 2.0 mg/kg/injection, schedule: Q01DX009 (ip), vehicle: saline 160 % of control | dose: 2.5 mg/kg/injection, schedule: Q01DX009 (ip), vehicle: saline 174 % of control | dose: 2.5 mg/kg/injection, schedule: Q04DX003 (ip), vehicle: other 153 % of control | dose: 3.0 mg/kg/injection, schedule: Q01DX009 (ip), vehicle: saline 169 % of control | dose: 4.0 mg/kg/injection, schedule: Q01DX009 (ip), vehicle: saline 180 % of control | dose: 5.0 mg/kg/injection, schedule: Q01DX009 (ip), vehicle: saline 193 % of control | dose: 5.0 mg/kg/injection, schedule: Q04DX003 (ip), vehicle: saline 150 % of control | dose: 6.0 mg/kg/injection, schedule: Q04DX003 (ip), vehicle: water 153 % of control | dose: 10.0 mg/kg/injection, schedule: Q04DX003 (ip), vehicle: other 165 % of control | dose: 10.0 mg/kg/injection, schedule: Q04DX003 (ip), vehicle: saline with Tween-80 157 % of control | dose: 10.0 mg/kg/injection, schedule: Q04DX003 (ip), vehicle: saline 156 % of control | dose: 10.0 mg/kg/injection, schedule: Q04DX003 (ip), vehicle: water 157 % of control | dose: 12.0 mg/kg/injection, schedule: Q04DX003 (ip), vehicle: saline 158 % of control | dose: 15.0 mg/kg/injection, schedule: Q04DX003 (ip), vehicle: saline with Tween-80 150 % of control | dose: 25.0 mg/kg/injection, schedule: Q01DX001 (ip), vehicle: other 157 % of control and 175 % of control | dose: 1250.0 micrograms/kg/injection, schedule: Q01DX009 (ip), vehicle: other 157 % of control | dose: 2500.0 micrograms/kg/injection, schedule: Q01DX009 (ip), vehicle: other 157 % of control and 172 % of control
inactive: dose: 0.6 mg/kg/injection, schedule: Q01DX009 (ip), vehicle: other 124 % of control | dose: 0.75 mg/kg/injection, schedule: Q04DX003 (ip), vehicle: saline 121 % of control | dose: 1.0 mg/kg/injection, schedule: Q04DX003 (ip), vehicle: saline 121 % of control | dose: 1.25 mg/kg/injection, schedule: Q04DX003 (ip), vehicle: other 124 % of control | dose: 12.5 mg/kg/injection, schedule: Q01DX001 (sc), vehicle: other 103 % of control | dose: 16.0 mg/kg/injection, schedule: Q04DX003 (ip), vehicle: saline 112 % of control | dose: 20.0 mg/kg/injection, schedule: Q04DX003 (ip), vehicle: other 124 % of control | dose: 25.0 mg/kg/injection, schedule: Q01DX001 (sc), vehicle: other 100 % of control and 102 % of control | dose: 50.0 mg/kg/injection, schedule: Q01DX001 (sc), vehicle: other 103 % of control and 105 % of control | dose: 100.0 mg/kg/injection, schedule: Q01DX001 (sc), vehicle: other 99 % of control | dose: 625.0 micrograms/kg/injection, schedule: Q01DX009 (ip), vehicle: other 118 % of control | dose: 5000.0 micrograms/kg/injection, schedule: Q01DX009 (ip), vehicle: other 90 % of control

CCOC(=O)CSC(=O)c1cccnc1Oc1ccccc1
inactive: dose: 50.0 mg/kg/injection, schedule: Q01DX005 (ip), vehicle: Klucel (hydroxypropylcellulose) (HPC) 94 % of control | dose: 100.0 mg/kg/injection, schedule: Q01DX005 (ip), vehicle: Klucel (hydroxypropylcellulose) (HPC) 90 % of control | dose: 200.0 mg/kg/injection, schedule: Q01DX005 (ip), vehicle: Klucel (hydroxypropylcellulose) (HPC) 93 % of control

CC1SC(=S)N(c2ccccc2)C1=O (stereo unspecified)
inactive: dose: 50.0 mg/kg/injection, schedule: Q01DX009 (ip), vehicle: saline with Tween-80 104 % of control | dose: 50.0 mg/kg/injection, schedule: Q04DX003 (ip), vehicle: saline with Tween-80 112 % of control | dose: 100.0 mg/kg/injection, schedule: Q01DX009 (ip), vehicle: saline with Tween-80 100 % of control | dose: 100.0 mg/kg/injection, schedule: Q04DX003 (ip), vehicle: saline with Tween-80 108 % of control | dose: 200.0 mg/kg/injection, schedule: Q01DX009 (ip), vehicle: saline with Tween-80 109 % of control | dose: 200.0 mg/kg/injection, schedule: Q04DX003 (ip), vehicle: saline with Tween-80 108 % of control
